# In patent US11566007B2, “Ras inhibitors” (Revolution Medicines, Inc., priority 2019, dated 2023):
# Where “and” joins values, the source holds several entries; their conditions need not be identical. Equal entries are not always repeated.
# Tests used:
# [1] = tested on: NCI-H358 cells (K-Ras G12C); assay: Potency assay: pERK in NCI-H358 cells; assay type: cell-based, human; details: Homo sapiens, NCI-H358; H358 KRAS G12C; read-out: pERK EC50
# Summary of the method: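 pERK decrease read by AlphaLISA SureFire p-ERK1/2 or In-Cell Western after 4 h compound exposure at 37 °C, 5% CO2.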
# [2] = biological target: K-Ras G12C (Homo sapiens (Human), UniProt P01116+P62937, G12C); assay: Ras-Raf (BRAF RBD) disruption / FRET / MOA assay, KRAS G12C; assay type: biochemical; details: KRAS G12C; Ras-Raf disruption/FRET/MOA assay; read-out: IC50* KRAS G12C FRET data
# Chain of K-Ras G12C (P01116-2 other isoform, or with tags, fused parts or gaps G12C): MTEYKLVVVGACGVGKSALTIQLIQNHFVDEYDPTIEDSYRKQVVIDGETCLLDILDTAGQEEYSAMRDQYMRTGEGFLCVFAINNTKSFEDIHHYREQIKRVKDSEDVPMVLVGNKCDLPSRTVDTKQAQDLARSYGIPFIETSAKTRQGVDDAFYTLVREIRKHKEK
# Chain of K-Ras G12C (P62937 whole entry): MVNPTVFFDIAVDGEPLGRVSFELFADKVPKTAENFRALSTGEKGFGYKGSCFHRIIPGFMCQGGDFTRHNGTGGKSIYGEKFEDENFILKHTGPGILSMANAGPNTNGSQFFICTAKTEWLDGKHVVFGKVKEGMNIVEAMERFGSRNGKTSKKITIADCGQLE
# Summary of the method: (§1)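 Compounds, top final concentration 30 μM in 10-point 3-fold series, incubated 3 hours at 25° C with nucleotide-loaded Ras, cyclophilin A and BRAF RBD.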
# [3] = biological target: K-Ras G13C (Homo sapiens (Human), UniProt P01116+P62937, G13C); assay: Ras-Raf (BRAF RBD) disruption / FRET / MOA assay, KRAS G13C; assay type: biochemical; details: KRAS G13C; Ras-Raf disruption/FRET/MOA assay; read-out: IC50* KRAS G13C FRET data
# Chain of K-Ras G13C (P01116-2 other isoform, or with tags, fused parts or gaps G13C): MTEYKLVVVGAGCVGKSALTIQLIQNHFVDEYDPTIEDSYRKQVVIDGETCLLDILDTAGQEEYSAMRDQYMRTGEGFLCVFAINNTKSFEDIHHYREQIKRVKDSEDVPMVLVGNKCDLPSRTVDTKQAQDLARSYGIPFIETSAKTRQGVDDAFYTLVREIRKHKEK
# Chain of K-Ras G13C (P62937 whole entry): as the sequence (P62937 whole entry) above
# Summary of the method: as §1
# [4] = biological target: KRAS G12D (Homo sapiens (Human), UniProt P01116+P62937, G12D); assay: Ras-Raf (BRAF RBD) disruption / FRET / MOA assay, KRAS G12D; assay type: biochemical; details: Ras-Raf disruption/FRET/MOA assay; class symbols; read-out: KRAS G12D FRET data IC50
# Chain of KRAS G12D (P01116-2 other isoform, or with tags, fused parts or gaps G12D): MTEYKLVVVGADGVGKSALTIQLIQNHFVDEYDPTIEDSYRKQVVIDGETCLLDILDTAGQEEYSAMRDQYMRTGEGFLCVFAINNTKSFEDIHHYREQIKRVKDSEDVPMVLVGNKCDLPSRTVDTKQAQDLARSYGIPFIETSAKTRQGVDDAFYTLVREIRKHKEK
# Chain of KRAS G12D (P62937 whole entry): as the sequence (P62937 whole entry) above
# Summary of the method: as §1
# [5] = biological target: KRAS WT (Homo sapiens (Human), UniProt P01116+P62937); assay: Ras-Raf (BRAF RBD) disruption / FRET / MOA assay, KRAS WT; assay type: biochemical; details: read-out: IC50* KRAS WT FRET data
# Chain of KRAS WT (P01116-2 other isoform, or with tags, fused parts or gaps): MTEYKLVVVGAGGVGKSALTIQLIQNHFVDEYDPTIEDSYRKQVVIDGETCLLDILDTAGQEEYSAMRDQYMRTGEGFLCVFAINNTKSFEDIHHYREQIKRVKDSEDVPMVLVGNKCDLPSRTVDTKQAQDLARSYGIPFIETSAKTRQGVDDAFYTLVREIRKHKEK
# Chain of KRAS WT (P62937 whole entry): as the sequence (P62937 whole entry) above
# Summary of the method: as §1
# [6] = biological target: NRAS G12C (Homo sapiens (Human), UniProt P01111+P62937, G12C); assay: Ras-Raf (BRAF RBD) disruption / FRET / MOA assay, NRAS G12C; assay type: biochemical; details: read-out: IC50* NRAS G12C FRET data
# Chain of NRAS G12C (P01111 whole entry G12C): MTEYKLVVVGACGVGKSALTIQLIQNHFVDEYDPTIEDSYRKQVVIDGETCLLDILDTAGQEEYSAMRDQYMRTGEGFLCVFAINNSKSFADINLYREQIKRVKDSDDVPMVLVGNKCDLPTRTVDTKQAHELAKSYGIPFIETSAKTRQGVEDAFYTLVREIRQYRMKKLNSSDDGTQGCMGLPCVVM
# Chain of NRAS G12C (P62937 whole entry): as the sequence (P62937 whole entry) above
# Summary of the method: as §1
# [7] = biological target: NRAS WT (Homo sapiens (Human), UniProt P01111+P62937); assay: Ras-Raf (BRAF RBD) disruption / FRET / MOA assay, NRAS WT; assay type: biochemical; details: read-out: IC50* NRAS WT FRET data
# Chain of NRAS WT (P01111 whole entry): as the sequence (P01111 whole entry G12C) above, with C12G counted along it
# Chain of NRAS WT (P62937 whole entry): as the sequence (P62937 whole entry) above
# Summary of the method: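 TR-FRET disruption of nucleotide-loaded Ras binding to BRAF RBD via compound-driven ternary complex with cyclophilin A. Compound as 10-point 3-fold series from 30 μM final, 3 h at 25° C, then anti-His Eu-W1024 (10 nM) and anti-GST allophycocyanin (50 nM) for 1.5 h. IC50 from decreased FRET ratio versus DMSO.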
EC50 [1] [nM],IC50 [2] [nM],IC50 [3],IC50 [4] [nM],IC50 [5] [nM],IC50 [6] [nM],IC50 [7] [nM],SMILES
< 5000,10 to 100,10 to 100 nM,> 10000,1000 to 10000,10 to 100,1000 to 10000,"C=CC(=O)N1CCO[C@H]2CN(C(=O)N(C)[C@H](C(=O)N[C@H]3Cc4nc(cs4)-c4ccc5c(c4)c(c(-c4cccnc4[C@H](C)OC)n5CC)CC(C)(C)COC(=O)[C@@H]4CCCN(N4)C3=O)C(C)C)C[C@H]21 (atropisomer, axis not shown) [Example A706]"
< 5000,10 to 100,10 to 100 nM,100 to 1000,10 to 100,10 to 100,10 to 100,"C=CC(=O)N1CCN(C(=O)N(C)[C@H](C(=O)N[C@H]2Cc3nc(cs3)-c3ccc4c(c3)c(c(-c3cccnc3[C@H](C)OC)n4CC)CC(C)(C)COC(=O)[C@@H]3CCCN(N3)C2=O)C(C)C)[C@@H]2C[C@@H]21 (atropisomer, axis not shown) [Example A736]"
< 5000,10 to 100,100 to 1000 nM,1000 to 10000,100 to 1000,10 to 100,100 to 1000,C=CC(=O)C1CC[C@H](C(=O)N(C)[C@H](C(=O)N[C@H]2Cc3cc(O)cc(c3)-c3ccc4c(c3)c(c(-c3cnn(C)c3[C@H](C)OC)n4CC)CC(C)(C)COC(=O)[C@@H]3CCCN(N3)C2=O)C(C)C)C1 (stereo partly shown) [Example A166]
< 5000,10 to 100,10 to 100 nM,100 to 1000,100 to 1000,10 to 100,10 to 100,C=CC(=O)N1CC[C@H](C(=O)N(C)[C@H](C(=O)N[C@H]2Cc3cc(O)cc(c3)-c3ccc4c(c3)c(c(-c3cncc5c3[C@@H](OC)CC5)n4CC)CC(C)(C)COC(=O)[C@@H]3CCCN(N3)C2=O)C(C)C)C1 [Example A275]
< 5000,> 10000,> 10000 nM,> 10000,> 10000,> 10000,> 10000,C=CC(=O)N1CC[C@H](C(=O)N(C)[C@H](C(=O)N[C@H]2Cc3nc(ns3)-c3ccc4c(c3)c(c(-c3cncnc3)n4CC)CC(C)(C)COC(=O)[C@@H]3CCCN(N3)C2=O)C(C)C)C1 [Example A285]
< 5000,< 10,10 to 100 nM,100 to 1000,10 to 100,< 10,10 to 100,C=CC(=O)N1CC[C@H](C(=O)N(C)[C@H](C(=O)N[C@H]2Cc3cc(O)cc(c3)-c3ccc4c(c3)c(c(-c3cnn5c3[C@@H](OC)CCC5)n4CC)CC(C)(C)COC(=O)[C@@H]3CCCN(N3)C2=O)C(C)C)C1 [Example A300]
< 5000,< 10,1 µM to 10 µM (2×) and > 10 µM,> 10000,> 10000,< 10,> 10000,"CCn1c(-c2cccnc2[C@H](C)OC)c2c3cc(ccc31)-c1cccc(c1)C[C@H](NC(=O)C(COC1CN(C(=O)C#CC(C)(C)N(C)C)C1)C(C)C)C(=O)N1CCC[C@H](N1)C(=O)OCC(C)(C)C2 (stereo partly drawn) [Example A316, (2R)-2-(((1-(4-(dimethylamino)-4-methylpent-2-ynoyl)azetidin-3-yl)oxy)methyl)-N-((6^3S,4S)-1^1-ethyl-1^2-(2-((S)-1-methoxyethyl)pyridin-3-yl)-10,10-dimethyl-5,7-dioxo-6^1,6^2,6^3,6^4,6^5,6^6-hexahydro-1^1H-8-oxa-1(5,3)-indola-6(1,3)-pyridazina-2(1,3)-benzenacycloundecaphane-4-yl)-3-methylbutanamide]"
< 5000,10 to 100,100 to 1000 nM,1000 to 10000,100 to 1000,10 to 100,100 to 1000,C=CC(=O)N1CCC(C(=O)N(C)[C@H](C(=O)N[C@H]2Cc3cc(CF)cc(c3)-c3ccc4c(c3)c(c(-c3cccnc3[C@H](C)OC)n4CC(F)(F)F)CC(C)(C)COC(=O)[C@@H]3CCCN(N3)C2=O)C(C)C)C1 (stereo partly shown) [Example A659]
< 5000,< 10,100 to 1000 nM,> 10000,1000 to 10000,10 to 100,1000 to 10000,CCn1c(-c2cccnc2[C@H](C)OC)c2c3cc(ccc31)N1CCO[C@@H](C[C@H](NC(=O)[C@H](C(C)C)N(C)C(=O)[C@@]3(F)CCC(C(=O)C#CC(C)(C)N4CCC4)C3)C(=O)N3CCC[C@H](N3)C(=O)OCC(C)(C)C2)C1 (stereo partly shown) [Example A726]

SMILES,EC50 [1] [nM],IC50 [2] [nM],IC50 [3],IC50 [4] [nM],IC50 [5] [nM],IC50 [6] [nM],IC50 [7] [nM]
"CCn1c(-c2cccnc2[C@H](C)OC)c2c3cc(ccc31)-c1cnc(o1)C[C@H](NC(=O)[C@H](C(C)C)N(C)C(=O)[C@H]1CCN(C(=O)C#CC(C)(C)N(C)C)C1)C(=O)N1CCC[C@H](N1)C(=O)OCC(C)(C)C2 (atropisomer, axis not shown) [Example A692, (3S)-1-(4-(dimethylamino)-4-methylpent-2-ynoyl)-N-((2S)-1-(((6^3S,4S)-1^1-ethyl-1^2-(2-((S)-1-methoxyethyl)pyridin-3-yl)-10,10-dimethyl-5,7-dioxo-6^1,6^2,6^3,6^4,6^5,6^6-hexahydro-1^1H-8-oxa-2(5,2)-oxazola-1(5,3)-indola-6(1,3)-pyridazinacycloundecaphane-4-yl)amino)-3-methyl-1-oxobutan-2-yl)-N-methylpyrrolidine-3-carboxamide]",< 5000,< 10,100 to 1000 nM,> 10000,1000 to 10000,< 10,> 10000
"C=CC(=O)N1CCOC2(CCN(C(=O)N(C)[C@H](C(=O)N[C@H]3Cc4nc(cs4)-c4ccc5c(c4)c(c(-c4cccnc4[C@H](C)OC)n5CC)CC(C)(C)COC(=O)[C@@H]4CCCN(N4)C3=O)C(C)C)CC2)C1 (atropisomer, axis not shown) [Example A695]",< 5000,100 to 1000,10 to 100 nM,1000 to 10000,100 to 1000,10 to 100,100 to 1000
"C=CC(=O)N1CCC2(CC1)CCN(C(=O)N(C)[C@H](C(=O)N[C@H]1Cc3nc(cs3)-c3ccc4c(c3)c(c(-c3cccnc3[C@H](C)OC)n4CC)CC(C)(C)COC(=O)[C@@H]3CCCN(N3)C1=O)C(C)C)CC2 (atropisomer, axis not shown) [Example A697]",< 5000,10 to 100,100 to 1000 nM,100 to 1000,100 to 1000,10 to 100,10 to 100
"C=CC(=O)N1CCC(F)(C(=O)N(C)[C@H](C(=O)N[C@H]2Cc3nc(cs3)-c3ccc4c(c3)c(c(-c3cccnc3[C@H](C)OC)n4CC)CC(C)(C)COC(=O)[C@@H]3CCCN(N3)C2=O)C(C)C)CC1 (atropisomer, axis not shown) [Example A700]",< 5000,10 to 100,100 to 1000 nM,100 to 1000,100 to 1000,10 to 100,100 to 1000
"CO[C@@H](C)c1ncccc1-c1c2c3cc(ccc3n1CC(F)(F)F)-c1cnc(o1)C[C@H](NC(=O)[C@H](C(C)C)N(C)C(=O)[C@H]1CCN(C(=O)C#CC(C)(C)N(C)C)C1)C(=O)N1CCC[C@H](N1)C(=O)OCC(C)(C)C2 (atropisomer, axis not shown) [Example A707]",< 5000,< 10,100 to 1000 nM,1000 to 10000,1000 to 10000,< 10,1000 to 10000
"CO[C@@H](C)c1ncccc1-c1c2c3nc(ccc3n1CC(F)(F)F)-c1cccc(c1)C[C@H](NC(=O)[C@@H](COC1CN(C(=O)C#CC(C)(C)N(C)C)C1)C(C)C)C(=O)N1CCC[C@H](N1)C(=O)OCC(C)(C)C2 (atropisomer, axis not shown) [Example A724]",< 5000,10 to 100,> 10000 nM,> 10000,> 10000,10 to 100,> 10000
"CCn1c(-c2cccnc2[C@H](C)OC)c2c3cc(ccc31)-c1cccc(c1)C[C@H](NC(=O)[C@H](C(C)C)N1CO[C@@]3(CCN(C(=O)C#CC(C)(C)N4CCC4)C3)C1=O)C(=O)N1CCC[C@H](N1)C(=O)OCC(C)(C)C2 (atropisomer, axis not shown) [Example A733]",< 5000,10 to 100,100 to 1000 nM,> 10000,> 10000,10 to 100,> 10000
